US6737383B1, “Herbicidal oxadiazolidines” (priority 1999, dated 2004)

System: surinam grass
Test: Test D surinam grass
Format: in vivo, Brachiaria decumbens
Conditions: Postemergence, 0 to 100 scale

CC(C)N(C(=O)n1oc(=O)n(C2CCCCCC2)c1=O)c1ccc(F)cc1F [Compound 342]
Plant response rating, Surinam grass (Rate 16 g/ha, 0 no injury, 100 complete control): 0
Plant response rating, Surinam grass (Rate 32 g/ha, 0 no injury, 100 complete control): 0
Surinam grass plant response rating (Rate 64 g/ha, 0 no injury, 100 complete control): 20
Surinam grass plant response rating (Rate 125 g/ha, 0 no injury, 100 complete control): 30
Plant response rating, Surinam grass (Rate 250 g/ha): 40
